Laboratory results from patent US12115222B2, “Compositions and methods for improving the solubility of erectile dysfunction therapeutics” (Villya LLC, priority 2023, dated 2024).
Values joined by “and” are separate entries in the source; they are usually repeats but may differ in a detail not shown here. Equal entries are not always repeated. Where two headings read alike, the source gives them in different places. Values belong to the molecule of their own block, whether it stands above or below them.

Tests used:
[1] = drug alone; cited from earlier work
[2] = system: S. mansoni newly transformed schistosomula (NTS)
[3] = Text: After solubilizing the sugar and the compound in ethanol or aqueous ethanol, the ethanol is evaporated for example under a high rotary vacuum. The powder resulting from the evaporation step is then resolubilized (dissolved) in water. Another solvent can be methanol at 80% methanol, 95% (ACS grade) or greater (to 100% methanol) as well as combinations of methanol and ethanol or methanol and water. After solubilizing the sugar and the compound in ethanol or aqueous ethanol, the ethanol is evaporated for example under a high rotary vacuum. The powder resulting from the evaporation step is then resolubilized (dissolved) in water.
Generally, ingredients are deposited into a sealed container with ethanol and vortex-mixed to form a solution. The solution is subjected to centrifugation. The ethanol is evaporated off and the dried mixture was dissolved in water. This mixture is centrifuged again and the supernatant is filtered through a membrane. […] In one embodiment, the admixing process involves dissolving the PSD and sugar in the ethanol while stirring and adjusting the pH as necessary to obtain complete dissolution and a clear reaction mixture. The reaction mixture can then be dried to remove the ethanol. No further water washing or filtering is needed.
In this example, an oven-dried single-neck RB flask equipped with a magnetic stir bar was used. […] The reaction mixture was vigorously stirred at room temperature for 30 min at 20° C. […] The white solid was dried using vacuum drying performed at room temperature and a high vacuum pump for about one hour to remove the ethanol (EtOH) completely using an Edvards Model #RV8 […], a Heidolph type Basis Hei-VAP Value, No. 560-00000-0101. The high vacuum pump was connected to a cooling trap and the trap was connected to the RB flask. Vacuum strength was about 1 mm Hg.
The white foamy solid was dried over a high vacuum at room temperature for an additional hour to remove the water completely, by ascertaining changes in weight loss. Drying continued until further weight loss was not observed.
Step 1: In an oven-dried single neck RB flask equipped with magnetic stir and septa (flask cap), 5 mg sildenafil (0.01054 mmol) and 16.95 mg stevioside (1:2 molar ratio) were weighed into the RB flask and dissolved in 85% ethanol (˜2.0 mL, denatured 85% ethanol) at ambient temperature. The reaction mixture was vigorously stirred at room temperature for 30 min. […] The white solid was dried over a high vacuum for an hour to remove the ethanol completely (no further reduction in weight was observed).
Step 2: The obtained white solid was then dissolved in 2.0 mL water at room temperature in an RB flask with a magnetic stir bar. The reaction mixture was stirred at ambient temperature for 30 min. […] The white foamy solid was dried over a high vacuum at room temperature for an additional hour to remove the water completely. The weight of the flask was checked while drying until no further weight loss was observed.

[4] = Stability of the dissolved complex on standing (precipitate); assay type: physicochemical
Procedure: […] […] The clear solution was then dried as described in Step 2 in Example 8. The 10 mg dried solid was then dissolved in 0.6 mL D20.
For NMR, 10 mg of the solid sample obtained was dissolved in 0.6 mL D20. The dissolved 10 mg sample again produced a clear and homogeneous solution. […] The complex in D20 remained stable for 9 days without any observable precipitate forming.

[5] = Non-caloric sugar solubility in water and 95% ethanol
Procedure: In this experiment, the following sugars were compared for solubility: rubusoside, dulcoside A, rebaudioside B, dulcoside B, and rebaudioside D. Approximately 5.0 mg of each sugar was attempted to be dissolved in 0.6 mL water and vortexed for 2 minutes at room temperature.
In another experiment, 50 mg stevia was dissolved in either 2.0 mL water or 2.0 mL 95% ethanol.

[6] = cited from earlier work
[7] = approximately 5.0 mg in 0.6 mL water, vortexed 2 minutes, room temperature

Molecule: O=C(C1CCCCC1)N1CC(=O)N2CCc3ccccc3C2C1 (stereo not shown) [Praziquantel]
Solubility of Praziquantel In Ethanol (95%), without sugar [1]: 9.7 g/100 mL
Solubility of Praziquantel In Water, without sugar [1]: 0.04 g/100 mL
24 hr Exposure LD50 ([2]; 24 hr exposure): 33.5 ± 5.71 µM
72 hr exposure LD50 ([2]; 72 hr exposure (table)): 24.3 ± 0.67 µM
LD50 ([2]; exposure after 72 hours): 33.9 ± 0.64 µM
solubility by 1H-NMR [3]: 0.65
solubility by 1H-NMR analysis [3]: 0.89
solubility for the drug by 1H-NMR analysis [3]: 1.73
solubility in 95% ethanol with Dulcoside A [3]: insoluble
solubility in 95% ethanol with rebaudioside B [3]: insoluble
solubility in 95% ethanol with rebaudioside D [3]: insoluble
solubility in water by NMR [3]: only partial solubility
solubility in water in complex with dulcoside B [3]: well soluble
solubility in water with D-fructose (NMR) [3]: did not make praziquantel soluble or more soluble
solubility in water with rebaudioside D [3]: insoluble
time until the water solution became white and turbid ([4]; Example 16, praziquantel:rubusoside 1:2 molar, 0.1 N HCl, pH ~4.7): 15 min

solubility in water by 1H-NMR [3]: 100%
solubility in water by NMR ([3]; 30 min): 100%
time remained in solution in D2O ([4]; Example 14, 1:3 molar with citric acid): 3 days
Molecule: CCCc1nn(C)c2c(=O)[nH]c(-c3cc(S(=O)(=O)N4CCN(C)CC4)ccc3OCC)nc12 [Sildenafil, 5-[2-ethoxy-5-(4-methylpiperazin-1-yl)sulfonylphenyl]-1-methyl-3-propyl-6H-pyrazolo[4,3-d]pyrimidin-7-one]

solubility of the sugar in 95% ethanol (observation) ([5]; 50 mg in 2.0 mL 95% ethanol): either insoluble or partially soluble
solubility of the sugar in water (observation) ([5]; 50 mg in 2.0 mL water): soluble
Molecule: C=C1C[C@@]23CC[C@H]4[C@@](C)(CCC[C@@]4(C)C(=O)O[C@@H]4O[C@H](CO)[C@@H](O)[C@H](O)[C@H]4O)[C@@H]2CC[C@]1(O[C@@H]1O[C@H](CO)[C@@H](O)[C@H](O[C@@H]2O[C@H](CO)[C@@H](O)[C@H](O)[C@H]2O)[C@H]1O[C@@H]1O[C@H](CO)[C@@H](O)[C@H](O)[C@H]1O)C3 [rebaudioside A]
Sugar Solubility in 95% EtOH [6]: Poorly soluble
Sugar Solubility in Water [6]: Poorly soluble

solubility of the sugar in water (observation) [5, 7]: partially soluble
Molecule: C=C1C[C@@]23CC[C@H]4[C@@](C)(CCC[C@@]4(C)C(=O)O[C@@H]4O[C@H](CO)[C@@H](O)[C@H](O)[C@H]4O[C@@H]4O[C@H](CO)[C@@H](O)[C@H](O)[C@H]4O)[C@@H]2CC[C@]1(O[C@@H]1O[C@H](CO)[C@@H](O)[C@H](O[C@@H]2O[C@H](CO)[C@@H](O)[C@H](O)[C@H]2O)[C@H]1O[C@@H]1O[C@H](CO)[C@@H](O)[C@H](O)[C@H]1O)C3 [rebaudioside D]
Sugar Solubility in 95% EtOH [6]: Insoluble
Sugar Solubility in Water [6]: 100 mg/ml and 88.56 mM

solubility of the sugar in 95% ethanol (observation) ([5]; 50 mg in 2.0 mL 95% ethanol): slowly soluble
time to dissolve in 95% ethanol ([5]; 50 mg in 2.0 mL 95% ethanol, room temperature): 2 h
solubility of the sugar in water (observation) ([5]; 50 mg in 2.0 mL water): soluble
Molecule: OC[C@H]1O[C@H](O[C@]2(CCl)O[C@H](CCl)[C@@H](O)[C@@H]2O)[C@H](O)[C@@H](O)[C@H]1Cl [sucralose, 1,6-dichloro-1,6-dideoxy-β-D-fructofuranosyl-4-chloro-4-deoxy-α-D-galactopyranoside]
Sugar Solubility in 95% EtOH ([6]; at 20° C.): 283 g/L at 20 °C
Sugar Solubility in Water ([6]; at 20° C.): 110 g/L at 20 °C

solubility of the sugar in water (observation) [5, 7]: partially soluble
Molecule: dulcoside A
Sugar Solubility in 95% EtOH [6]: Partly soluble
Sugar Solubility in Water [6]: 2.28 g/L

solubility of the sugar in water (observation) [5, 7]: insoluble in water or poorly soluble
Molecule: rebaudioside B
Sugar Solubility in 95% EtOH [6]: Poorly soluble
Sugar Solubility in Water [6]: Poorly soluble
